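Dose response: 5 concentrations. Exposure: 48 h. Format: 96-well plates. Endpoint: linear interpolation; highest concentration if not reached. TGI: concentration producing complete growth inhibition.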
Legend:
Test in all cases: NCI-60 cell line screen, 48 h
SK-MEL-28 melanoma = test system: SK-MEL-28 melanoma
NCI-H226 lung = test system: NCI-H226 lung
DU-145 prostate = test system: DU-145 prostate
U251 CNS = test system: U251 CNS
RXF 393 renal = test system: RXF 393 renal
SR leukemia = test system: SR leukemia
SNB-75 CNS = test system: SNB-75 CNS
SF-268 CNS = test system: SF-268 CNS
SK-MEL-5 melanoma = test system: SK-MEL-5 melanoma
MOLT-4 leukemia = test system: MOLT-4 leukemia
CAKI-1 renal = test system: CAKI-1 renal
NCI-H460 lung = test system: NCI-H460 lung
NCI-H23 lung = test system: NCI-H23 lung
UACC-62 melanoma = test system: UACC-62 melanoma
OVCAR-3 ovarian = test system: OVCAR-3 ovarian
HS 578T breast = test system: HS 578T breast
ACHN renal = test system: ACHN renal
NCI-H522 lung = test system: NCI-H522 lung
EKVX NSCLC = test system: EKVX NSCLC
SK-OV-3 ovarian = test system: SK-OV-3 ovarian
HOP-92 NSCLC = test system: HOP-92 NSCLC
HCC-2998 colon = test system: HCC-2998 colon
HCT-116 colon = test system: HCT-116 colon
OVCAR-8 ovarian = test system: OVCAR-8 ovarian
SN12C renal = test system: SN12C renal
CCRF-CEM leukemia = test system: CCRF-CEM leukemia
A549 NSCLC = test system: A549 NSCLC
OVCAR-4 ovarian = test system: OVCAR-4 ovarian
LOX IMVI melanoma = test system: LOX IMVI melanoma
HCT-15 colon = test system: HCT-15 colon
HL-60(TB) leukemia = test system: HL-60(TB) leukemia
KM12 colon = test system: KM12 colon
RPMI-8226 leukemia = test system: RPMI-8226 leukemia
HT29 colon = test system: HT29 colon
PC-3 prostate = test system: PC-3 prostate
OVCAR-5 ovarian = test system: OVCAR-5 ovarian
UACC-257 melanoma = test system: UACC-257 melanoma
TK-10 renal = test system: TK-10 renal
BT-549 breast = test system: BT-549 breast
COLO 205 colon = test system: COLO 205 colon
IGROV1 ovarian = test system: IGROV1 ovarian
MDA-MB-435 = test system: MDA-MB-435
T-47D breast = test system: T-47D breast
SW-620 colon = test system: SW-620 colon
HOP-62 NSCLC = test system: HOP-62 NSCLC
786-0 renal = test system: 786-0 renal
K-562 leukemia = test system: K-562 leukemia
A498 renal = test system: A498 renal
M14 melanoma = test system: M14 melanoma
SK-MEL-2 melanoma = test system: SK-MEL-2 melanoma
SNB-19 CNS = test system: SNB-19 CNS
MDA-N = test system: MDA-N
NCI/ADR-RES ovarian = test system: NCI/ADR-RES ovarian
SF-295 CNS = test system: SF-295 CNS
MDA-MB-231 breast = test system: MDA-MB-231 breast
SF-539 CNS = test system: SF-539 CNS
MCF7 breast = test system: MCF7 breast
MALME-3M melanoma = test system: MALME-3M melanoma
UO-31 renal = test system: UO-31 renal

With `COc1cc([C@@H]2c3cc4c(cc3[C@@H](c3c(O)cc(O)c5c3O[C@H](c3ccc(O)c(O)c3)[C@H](OC(=O)c3cc(O)c(O)c(O)c3)C5)[C@H]3COC(=O)[C@H]23)OCO4)cc(OC)c1OC` as the compound, how does the TGI (SK-MEL-28 melanoma) read?
The TGI was > 100 µM.

What about the TGI (NCI-H226 lung) of the same compound?
The TGI was 7.53 µM.

And the TGI (DU-145 prostate)?
Its TGI is > 100 µM.

What about the TGI (U251 CNS) of the same compound?
Its TGI is > 100 µM.

What about the TGI (RXF 393 renal) of the same compound?
Its TGI is > 100 µM.

What about the TGI (SR leukemia) of the same compound?
Its TGI is 8.14 µM.

And the TGI (SNB-75 CNS)?
Its TGI is > 100 µM.

And the TGI (SF-268 CNS)?
Its TGI is > 100 µM.

And the TGI (SK-MEL-5 melanoma)?
Its TGI is > 100 µM.

And the TGI (MOLT-4 leukemia)?
Its TGI is > 100 µM.

And the TGI (CAKI-1 renal)?
Its TGI is > 96.6 µM.

What about the TGI (NCI-H460 lung) of the same compound?
Its TGI is 96.9 µM.

What about the TGI (NCI-H23 lung) of the same compound?
Its TGI is > 100 µM.

What about the TGI (UACC-62 melanoma) of the same compound?
The TGI was > 100 µM.

What about the TGI (OVCAR-3 ovarian) of the same compound?
The TGI was > 21.9 µM.

What about the TGI (HS 578T breast) of the same compound?
The TGI was > 100 µM.

What about the TGI (ACHN renal) of the same compound?
Its TGI is > 50 µM.

What about the TGI (NCI-H522 lung) of the same compound?
Its TGI is > 100 µM.

What about the TGI (EKVX NSCLC) of the same compound?
The TGI was > 100 µM.

What about the TGI (SK-OV-3 ovarian) of the same compound?
The TGI was > 100 µM.

What about the TGI (HOP-92 NSCLC) of the same compound?
Its TGI is > 100 µM.

And the TGI (HCC-2998 colon)?
Its TGI is 71.7 µM.

What about the TGI (HCT-116 colon) of the same compound?
Its TGI is > 100 µM.

And the TGI (OVCAR-8 ovarian)?
The TGI was > 100 µM.

And the TGI (SN12C renal)?
The TGI was > 100 µM.

And the TGI (CCRF-CEM leukemia)?
The TGI was 16.2 µM.

And the TGI (A549 NSCLC)?
The TGI was > 100 µM.

What about the TGI (OVCAR-4 ovarian) of the same compound?
Its TGI is > 100 µM.

And the TGI (LOX IMVI melanoma)?
Its TGI is > 100 µM.

And the TGI (HCT-15 colon)?
The TGI was > 100 µM.

And the TGI (HL-60(TB) leukemia)?
The TGI was 0.729 µM.

What about the TGI (KM12 colon) of the same compound?
The TGI was > 100 µM.

What about the TGI (RPMI-8226 leukemia) of the same compound?
The TGI was > 100 µM.

And the TGI (HT29 colon)?
The TGI was > 75.9 µM.

What about the TGI (PC-3 prostate) of the same compound?
The TGI was > 77.8 µM.

What about the TGI (OVCAR-5 ovarian) of the same compound?
The TGI was > 100 µM.

What about the TGI (UACC-257 melanoma) of the same compound?
The TGI was > 100 µM.

And the TGI (TK-10 renal)?
The TGI was > 100 µM.

And the TGI (BT-549 breast)?
The TGI was > 100 µM.

And the TGI (COLO 205 colon)?
The TGI was 90 µM.

And the TGI (IGROV1 ovarian)?
The TGI was > 100 µM.

What about the TGI (MDA-MB-435) of the same compound?
The TGI was 7.23 µM.

What about the TGI (T-47D breast) of the same compound?
The TGI was > 100 µM.

What about the TGI (SW-620 colon) of the same compound?
The TGI was > 100 µM.

And the TGI (HOP-62 NSCLC)?
Its TGI is > 100 µM.

What about the TGI (786-0 renal) of the same compound?
The TGI was > 100 µM.

And the TGI (K-562 leukemia)?
Its TGI is > 100 µM.

What about the TGI (A498 renal) of the same compound?
Its TGI is > 100 µM.

What about the TGI (M14 melanoma) of the same compound?
Its TGI is > 100 µM.

What about the TGI (SK-MEL-2 melanoma) of the same compound?
Its TGI is > 100 µM.

What about the TGI (SNB-19 CNS) of the same compound?
Its TGI is > 100 µM.

And the TGI (MDA-N)?
Its TGI is > 100 µM.

And the TGI (NCI/ADR-RES ovarian)?
Its TGI is > 100 µM.

What about the TGI (SF-295 CNS) of the same compound?
Its TGI is > 41.8 µM.

And the TGI (MDA-MB-231 breast)?
The TGI was > 100 µM.

And the TGI (SF-539 CNS)?
Its TGI is > 100 µM.

What about the TGI (MCF7 breast) of the same compound?
The TGI was > 100 µM.

For `O=C(O)C(O)C(O)C(O)C(=O)CO` (stereo unspecified), which TGI (SK-MEL-28 melanoma) is on record?
Its TGI is > 100 µM.

And the TGI (NCI-H226 lung)?
The TGI was > 100 µM.

What about the TGI (DU-145 prostate) of the same compound?
Its TGI is > 100 µM.

And the TGI (U251 CNS)?
The TGI was > 100 µM.

And the TGI (RXF 393 renal)?
Its TGI is > 100 µM.

And the TGI (SR leukemia)?
Its TGI is > 100 µM.

And the TGI (SNB-75 CNS)?
Its TGI is > 100 µM.

What about the TGI (SF-268 CNS) of the same compound?
Its TGI is > 100 µM.

And the TGI (SK-MEL-5 melanoma)?
Its TGI is > 100 µM.

And the TGI (MOLT-4 leukemia)?
The TGI was > 100 µM.

What about the TGI (CAKI-1 renal) of the same compound?
Its TGI is > 100 µM.

What about the TGI (NCI-H460 lung) of the same compound?
Its TGI is > 100 µM.

And the TGI (NCI-H23 lung)?
The TGI was > 100 µM.

And the TGI (MALME-3M melanoma)?
Its TGI is > 100 µM.

And the TGI (UACC-62 melanoma)?
The TGI was > 100 µM.

What about the TGI (OVCAR-3 ovarian) of the same compound?
The TGI was > 100 µM.

What about the TGI (HS 578T breast) of the same compound?
Its TGI is > 100 µM.

And the TGI (ACHN renal)?
Its TGI is > 100 µM.

And the TGI (UO-31 renal)?
Its TGI is > 100 µM.

What about the TGI (NCI-H522 lung) of the same compound?
Its TGI is > 100 µM.

And the TGI (EKVX NSCLC)?
The TGI was > 100 µM.

And the TGI (SK-OV-3 ovarian)?
The TGI was > 100 µM.

And the TGI (HOP-92 NSCLC)?
The TGI was > 100 µM.

And the TGI (HCC-2998 colon)?
The TGI was > 100 µM.

And the TGI (HCT-116 colon)?
Its TGI is > 100 µM.

And the TGI (OVCAR-8 ovarian)?
The TGI was > 100 µM.

What about the TGI (SN12C renal) of the same compound?
The TGI was > 100 µM.

And the TGI (CCRF-CEM leukemia)?
Its TGI is > 100 µM.

And the TGI (A549 NSCLC)?
Its TGI is > 100 µM.

And the TGI (OVCAR-4 ovarian)?
Its TGI is > 100 µM.

What about the TGI (LOX IMVI melanoma) of the same compound?
Its TGI is > 100 µM.

And the TGI (HCT-15 colon)?
Its TGI is > 100 µM.

What about the TGI (HL-60(TB) leukemia) of the same compound?
The TGI was > 100 µM.

What about the TGI (KM12 colon) of the same compound?
Its TGI is > 100 µM.

What about the TGI (RPMI-8226 leukemia) of the same compound?
The TGI was > 100 µM.

What about the TGI (HT29 colon) of the same compound?
Its TGI is > 100 µM.

And the TGI (PC-3 prostate)?
The TGI was > 100 µM.

What about the TGI (OVCAR-5 ovarian) of the same compound?
The TGI was > 100 µM.

What about the TGI (UACC-257 melanoma) of the same compound?
Its TGI is > 100 µM.

And the TGI (TK-10 renal)?
The TGI was > 100 µM.

And the TGI (BT-549 breast)?
Its TGI is > 100 µM.

And the TGI (COLO 205 colon)?
Its TGI is > 100 µM.

And the TGI (IGROV1 ovarian)?
Its TGI is > 100 µM.

What about the TGI (MDA-MB-435) of the same compound?
Its TGI is > 100 µM.

What about the TGI (T-47D breast) of the same compound?
Its TGI is > 100 µM.

And the TGI (SW-620 colon)?
Its TGI is > 100 µM.

And the TGI (HOP-62 NSCLC)?
The TGI was > 100 µM.

And the TGI (786-0 renal)?
The TGI was > 100 µM.

And the TGI (K-562 leukemia)?
The TGI was > 100 µM.

What about the TGI (A498 renal) of the same compound?
Its TGI is > 100 µM.

And the TGI (M14 melanoma)?
Its TGI is > 100 µM.

What about the TGI (SK-MEL-2 melanoma) of the same compound?
The TGI was > 100 µM.

What about the TGI (SNB-19 CNS) of the same compound?
The TGI was > 100 µM.

What about the TGI (MDA-N) of the same compound?
The TGI was > 100 µM.

And the TGI (NCI/ADR-RES ovarian)?
Its TGI is > 100 µM.

And the TGI (SF-295 CNS)?
The TGI was > 100 µM.

What about the TGI (MDA-MB-231 breast) of the same compound?
The TGI was > 100 µM.

And the TGI (SF-539 CNS)?
Its TGI is > 100 µM.

And the TGI (MCF7 breast)?
Its TGI is > 100 µM.
